Test results: US20130210779A1, “METHOD OF IDENTIFYING TRIPLE NEGATIVE BREAST CANCER” (The Washington University, priority 2012, published 2013)

What was measured:
BRCA1-deficient cells = conditions: cited from earlier work
BOGA cells [1] = assay: Western blot of protein levels in BOGA cells after treatment; type: cell-based
Method: MCF7 cells were a gift from J. Weber (Washington University, St. Louis, Mo.). Cells were maintained in DMEM (Cellgro) supplemented with 10% fetal bovine serum (Sigma-Aldrich), antibiotics, and antimycotics. Cells transduced with short hairpin RNAs (shRNAs) were maintained in selection media containing 0.5 mg/mL Geneticin G418 (Gibco) or 2 μg/mL puromycin (Invitrogen).
Cells were lysed in RIPA buffer (50 mM Tris-HCl pH 8.0, 150 mM NaCl, 1% NP-40, 0.5% sodium deoxycholate, 0.5% SDS) supplemented with PMSF, protease inhibitors, and DTT. Following sonication, 120 μg of total cell lysate was loaded into 4%-15% Tris-Gly gradient gels. Protein detection was carried out with the following antibodies: BRCA1 (sc-6954, Santa Cruz), 53BP1 (NB100-304, Novus Biologicals), cathepsin L (sc-6498, Santa Cruz), p107 (sc-318, Santa Cruz), RAD51 (sc-8349, Santa Cruz), RPA (NA18, Calbiochem), and β-Tubulin (T8328, Sigma-Aldrich).
(§1) Aliquots of 1 nmol calcitriol were resuspended in 1 mL of bovine growth serum (BGS) and diluted in DMEM with antibiotics and antimycotics to a final concentration of 10% BGS. BGS was used as the vehicle in control media. Treatment was carried out for 24 hours unless indicated otherwise.
(§2) Cells were incubated with the broad spectrum cathepsin inhibitor E-64 (E3132, Sigma-Aldrich) at a concentration of 10 μM. Water served as the vehicle in control media. Treatment was carried out for 24 hours unless indicated otherwise.

BOGA cells [2] = assay: Analysis of aberrant chromosomes in metaphase spreads (genomic instability); type: cell-based
Method: as §1, §2
Cells were treated with the PARPi EB-47 (E8405, Sigma-Aldrich) at a concentration of 1.2 μg/mL for 48 hours. PARPi was dissolved in water, which was used as vehicle control.
(§3) For determining the extent of genomic instability, cells were irradiated with 2 Gy and analysis of metaphase spreads was performed 24 hours post-irradiation. For assaying formation of IRIF, cells were irradiated with 8 Gy and fixed and processed for immunofluorescence 1 hour, 3 hours, or 6 hours post-irradiation as indicated. For comet assays, cells were irradiated with 8 Gy.
Following all treatments, cells were arrested in mitosis by treatment with colcemid for 4 hours and metaphase spreads prepared by hypotonic swelling in 0.56% KCl, followed by fixation in 3:1 methanol:acetic acid. Cell suspensions were dropped onto slides and stained for 25 minutes in Wright-Giemsa Stain (9380-32, Ricca Chemical Company) and then washed in water. Slides were allowed to dry and were mounted using Eukitt Mounting Reagent and analyzed on an Olympus BX51 light microscope.

BOGA cells [3] = assay: 53BP1 IRIF formation by immunofluorescence; type: cell-based; conditions: BOGA cells (sh BRCA1), vitamin D 10−7 M from 24 hours prior to 8 Gy, fixed 6 hours post-IR
Method: (§4) Aliquots of 1 nmol calcitriol were resuspended in 1 mL of bovine growth serum (BGS) and diluted in DMEM with antibiotics and antimycotics to a final concentration of 10% BGS. BGS was used as the vehicle in control media. Treatment was carried out for 24 hours unless indicated otherwise. For determining the extent of genomic instability, cells were irradiated with 2 Gy and analysis of metaphase spreads was performed 24 hours post-irradiation. For assaying formation of IRIF, cells were irradiated with 8 Gy and fixed and processed for immunofluorescence 1 hour, 3 hours, or 6 hours post-irradiation as indicated. For comet assays, cells were irradiated with 8 Gy. Cells were plated on coverslips, irradiated with 8 Gy if indicated, and collected at the varying time intervals. Cells were fixed with 3.7% formaldehyde and 0.2% TritonX-100 in PBS for 10 minutes at RT, followed by 3 washes in PBS. After blocking in 1% BSA and 0.1% Triton X-100 in PBS for 1 hour at 37° C., cells were incubated with 53BP1 (NB100-304, Novus Biologicals) or RAD51 (sc-8349, Santa Cruz) antibodies for 1 hour at 37° C. Three washes in PBS were carried out followed by incubation for 1 hour at 37° C. with appropriate secondary antibodies. Final washes in PBS were carried out and cells were counterstained with DAPI and coverslips were mounted on slides using Vectashield (Vector Labs). […]

BOGA cells [4] = assay: RAD51 IRIF formation by immunofluorescence; type: cell-based; conditions: vitamin D, 8 Gy
Method: as §4

BOGA cells [5] = assay: Neutral comet assay, kinetics of DNA DSBs repair; type: cell-based; conditions: vitamin D 10−7 M 24 h preirradiation, 8 Gy
Method: as §3
Neutral comet assays were performed using CometSlide assay kits (Trevigen). […] Cells were embedded in agarose, lysed, and subjected to neutral single cell gel electrophoresis. The agarose was dehydrated and cells were stained with ethidium bromide to visualize under a fluorescence microscope. Olive comet moment was determined using the program CometScore Version 1.5 (TriTek). Olive moment was calculated by multiplying the percentage of DNA in the tail by the displacement between the means of the head and tail distributions as described (Olive et al., 1990). A total of 25-30 comets were analyzed per sample in each experiment.

[6] = BRCA1-deficient (BOGA) cells, E64 10 μM

## CNCc1ccc(-c2[nH]c3cc(F)cc4c3c2CCNC4=O)cc1 [AG014699]
BRCA1-deficient cells
  Clonogenic survival of BRCA1-deficient cells compared to cells expressing BRCA1: clear reduction

## CC(C)C[C@H](NC(=O)[C@H]1O[C@@H]1C(=O)O)C(=O)NCCCCN=C(N)N [E64]
BOGA cells [1]; [6]
  53BP1 protein levels (western blot): increased levels
  CTSL levels (western blot): without major changes
BOGA cells [2]; E64 24 h prior to 2 Gy
  Genomic instability after IR: marked increase

## Nc1ncnc2c1ncn2[C@@H]1O[C@H](C(=O)N2CCN(CC(=O)Nc3cccc4c3CNC4=O)CC2)[C@@H](O)[C@H]1O [EB-47]
BOGA cells [2]; PARPi EB-47 1.2 μg/mL 48 h alone
  Genomic instability (metaphases with chromosomal aberrations): does not result in profound genomic instability

## O=C1CCC(=O)N1c1cc(Cc2n[nH]c(=O)c3ccccc23)ccc1F [KU0058684]
BRCA1-deficient cells
  Clonogenic survival of BRCA1-deficient cells compared to cells expressing BRCA1: clear reduction

## O=C(c1cc(Cc2n[nH]c(=O)c3ccccc23)ccc1F)N1CCCNCC1 [KU0058948]
BRCA1-deficient cells
  Clonogenic survival of BRCA1-deficient cells compared to cells expressing BRCA1: clear reduction

## C=C1/C(=C\C=C2/CCC[C@]3(C)[C@@H]([C@H](C)CCCC(C)(C)O)CC[C@@H]23)C[C@@H](O)C[C@@H]1O [vitamin D, 1α,25-dihydroxyvitamin D3]
BOGA cells [1]; BOGA cells, vitamin D 10−7 M
  53BP1 protein levels (western blot): stabilizes
  p107 levels (control for inhibition of CTSL activity): stabilization
BOGA cells [3]
  % cells with 53BP1 foci: 84%
BOGA cells [3]; listed as vit D
  % cells with 53BP1 foci: 84%
BOGA cells [4]; 1 hour post-IR
  % cells positive for RAD51 IRIF: 35%
BOGA cells [4]; 3 h post-IR
  Extent of RAD51 IRIF at later times post-irradiation: did not affect
BOGA cells [5]
  Kinetics of DNA DSBs repair (fast phase), Olive comet moment: rescues
BOGA cells [2]; vitamin D 10−7 M 24 h prior to and with PARPi EB-47 1.2 μg/mL 48 h
  Extent of chromosomal aberrations in response to PARPi: increase
BOGA cells [2]; vitamin D 24 h prior to 2 Gy, 24 h post-IR
  Percentage of metaphases with aberrant chromosomes after IR: significantly increased
BOGA cells [2]; vitamin D alone, mock irradiation
  Genomic instability (metaphases with chromosomal aberrations), single agent: modest increase
